# From patent publication US8202882B2, “5-cyanothienopyridines for the treatment of tumours” (Merck Patent Gesellschaft MIT Beschränkter Haftung, priority 2007, dated 2012)
# pIC50: −log10 of the molar value.
# Molecular target: T1, GST-ALK5 (TGF-beta receptor I kinase) (Homo sapiens, UniProt P36897)
# T1 sequence (P36897 34-503): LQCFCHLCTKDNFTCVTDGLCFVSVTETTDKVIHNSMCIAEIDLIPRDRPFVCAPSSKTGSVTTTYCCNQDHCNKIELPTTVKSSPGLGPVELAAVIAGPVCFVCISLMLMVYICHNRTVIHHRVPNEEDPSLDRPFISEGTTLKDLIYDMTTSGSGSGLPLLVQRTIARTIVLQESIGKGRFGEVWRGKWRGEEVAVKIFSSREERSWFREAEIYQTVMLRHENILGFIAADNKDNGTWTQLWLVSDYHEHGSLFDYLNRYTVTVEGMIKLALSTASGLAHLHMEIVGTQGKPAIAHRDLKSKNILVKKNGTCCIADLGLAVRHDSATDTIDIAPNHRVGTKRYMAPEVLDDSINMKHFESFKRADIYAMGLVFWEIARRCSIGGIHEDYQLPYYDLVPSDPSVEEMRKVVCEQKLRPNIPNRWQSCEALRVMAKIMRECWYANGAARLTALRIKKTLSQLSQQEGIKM
# Assay: In-vitro (enzyme) kinase assay, 384-well flashplate; inhibition of TGF-beta
# Type: biochemical
# Conditions: GST-ALK5 with GST-SMAD2 substrate, 3 mM ATP (33P-ATP), 30° C., 45 min
# Description: In-Vitro (Enzyme) Assay for the Determination of the Efficacy of Inhibitors of the Inhibition of TGF-Beta-Promoted Effects Vermittelten Wirkungen
# The kinase assay is carried out as 384-well flashplate assay. 31.2 nM of GST-ALK5, 439 nM of GST-SMAD2 and 3 mM of ATP (with 0.3 μCi of ^33P-ATP/well) are incubated in a total volume of 35 μl (20 mM of HEPES, 10 mM of MgCl, 5 mM of MnCl, 1 mM of DTT, 0.1% of BSA, pH 7.4) without or with test substance (5-10 concentrations) at 30° C. for 45 min. The reaction is stopped using 25 μl of 200 mM EDTA solution, filtered with suction at room temperature after 30 min, and the wells are washed with 3 times 100 μl of 0.9% NaCl solution. Radioactivity is measured in the TopCount. The IC50 values are calculated using RS1.
row,pIC50,Compound
1,6.74,"N#Cc1c(NCC(O)CO)nc2sc(C(N)=O)c(N)c2c1-c1cc2ccccc2o1 (stereo not shown) [Compound A41, 3-Amino-4-benzofuran-2-yl-5-cyano-6-(2,3-dihydroxypropylamino)thieno[2,3-b]pyridine-2-carboxamide]"
2,6.62,"CCS(=O)(=O)N1CCN(c2nc3sc(C(N)=O)c(N)c3c(-c3cc(C)c(C)o3)c2C#N)CC1 [Compound A53, 3-Amino-5-cyano-4-(4,5-dimethylfuran-2-yl)-6-(4-ethanesulfonylpiperazin-1-yl)thieno[2,3-b]pyridine-2-carboxamide]"
3,6.54,"N#Cc1c(N)nc2sc(C(N)=O)c(N)c2c1-c1nc2ccccc2s1 [Compound A16, 3,6-Diamino-4-benzothiazol-2-y1-5-cyanothieno[2,3-b]pyridine-2-carboxamide]"
4,7.20,"CN1CCN(CCCNc2nc3sc(C(N)=O)c(N)c3c(-c3cc4ccccc4o3)c2C#N)CC1 [Compound A30, 3-amino-4-benzofuran-2-yl-5-cyano-6-[3-(4-methylpiperazin-1-yl)propylamino]thieno[2,3-b]pyridine-2-carboxamide]"
